In patent US8975293B2, “Epigenetic co-repressors of the gamma-globin gene and methods of using same” (Regents of the University of Michigan, priority 2011, dated 2015):

Columns and labels:
[1] = tested on: primary human erythroid cells; assay: Proliferation and viability of differentiating erythroid cells, trypan blue count; type: cell-based; conditions: day 4 through day 14
Procedure: (§1) Cryopreserved vials of purified human CD34+ cells, which were isolated from peripheral blood of healthy donors after mobilization with granulocyte colony-stimulating factor, were purchased from the Fred Hutchinson Cancer Research Center. The cells were grown and differentiated ex vivo into the erythroid lineage in 14 days by a two-phase culture method reported previously (Cui et al., 2011, Mol. Cell. Biol., 31:3298-3311; Giarratana et al., 2005, Nat. Biotechnol., 23:69-74). […] Cell morphology was examined by staining cytospins with a Wright-Giemsa stain (Sigma-Aldrich). Hemoglobin synthesis was examined by acid benzidine staining as previously described (Orkin et al., 1975, PNAS USA, 72:98-102).
(§2) A pLKO.1-puro lentiviral vector to express the LSD1 shRNA and a puromycin resistance gene was purchased from Sigma-Aldrich (TRCN0000046070), and the control empty vector was generated by removing a region (between EcoRI and NdeI sites) containing the hairpin sequence. Lentiviral particles were generated by transfecting the vectors into a packaging cell line. Cells were exposed to the viruses on day 4 of the culture for 24 hours, and then to 1 μg/ml puromycin on day 6 through day 14 for selection of infected cells.

[2] = tested on: primary human erythroid cells; assay: Hemoglobin analysis by HPLC, HbF synthesis; type: cell-based; conditions: day 14, average, untreated control 4.6%
Procedure: as §1
Cells were lysed and analyzed for hemoglobin composition by the B10-Rad Variant II Hemoglobin Testing System equipped with an ion-exchange HPLC column (Hercules). Averages of three to five biological replicates are presented.
as §2

[3] = tested on: primary human erythroid cells; conditions: 0.5, 1.5 or 5 μM
Procedure: as §1
For cell surface marker analysis, cells were stained with phycoerythrin (PE)-Cy7-conjugated anti-CD34 (eBioscience), PE-conjugated anti-CD71 (eBioscience), and PE-Cy5-conjugated antiglycophorin A (BD Biosciences) antibodies. For cytoplasmic HbF analysis, cells were fixed in 0.05% glutaraldehyde for 10 min, permeabilized in 0.1% Triton X-100 for 5 min, and then stained with allophycocyanin-conjugated anti-HbF antibody (Invitrogen). Stained cells were analyzed with the FACSCanto II (BD Biosciences).

[4] = tested on: fetal gamma-globin mRNA; type: cell-based, human; conditions: TC treatment, by day 14
Procedure: as §1
Expression of the genes for human gamma- and beta-globins, LSD1, mouse alpha-globin, and 18S rRNA was determined by RT-qPCR assay as described previously (Cui et al., supra). The abundance of each transcript was calculated based on the threshold cycle value and the amplification efficiency, experimentally determined for each primer pair, and then normalized to the abundance of 18S rRNA transcript as an internal control. All the primer pairs except for 18S rRNA were designed to span introns. […]

[5] = tested on: H3K4 demethylase activity of LSD1; conditions: differentiating erythroid cells, normalized to untreated cells
Procedure: as §1

[6] = tested on: gamma-globin promoter; conditions: day 11
Procedure: as §1

[7] = tested on: Human beta-globin gene; conditions: 3 or 10 mg/kg per day s.c., 5 days a week for 4 weeks
Procedure: (§3) Expression of the genes for human gamma- and beta-globins, LSD1, mouse alpha-globin, and 18S rRNA was determined by RT-qPCR assay as described previously (Cui et al., supra). The abundance of each transcript was calculated based on the threshold cycle value and the amplification efficiency, experimentally determined for each primer pair, and then normalized to the abundance of 18S rRNA transcript as an internal control. All the primer pairs except for 18S rRNA were designed to span introns.
(§4) Control mice were injected with saline only. After 4 weeks of injections, bone marrow cells were harvested for RTqPCR analysis for expression of the genes for human gamma- and beta-globins, and mouse alpha-globin as an internal control. Three or four mice were used for each experimental condition.

[8] = tested on: human gamma-globin gene; conditions: 3 or 10 mg/kg per day s.c., 5 days a week for 4 weeks; dose dependent
Procedure: as §3, §4

[9] = 3 or 10 mg/kg per day s.c., 5 days a week for 4 weeks
Procedure: as §4

What does the source list for `N[C@@H]1C[C@H]1c1ccccc1` (racemic) [TC, Tranylcypromine]?
cell proliferation ([1]; 0.5 μM): did not affect; cell viability ([1]; 0.5 μM): did not affect; cell proliferation ([1]; 1.5 μM): did not affect; cell viability ([1]; 1.5 μM): did not affect; cell proliferation ([1]; 5 μM): reduced cell proliferation; cell viability ([1]; 5 μM): without affecting viability; HbF, % of total hemoglobin (HPLC) ([2]; 0.5 μM): 13%; HbF, % of total hemoglobin (HPLC) ([2]; 1.5 μM): 20%; HbF, % of total hemoglobin (HPLC) ([2]; 5 μM): 31%; cell population positive for both CD71 and GPA [3]: slight to moderate reduction; HbF inductive effect by flow cytometry ([3]; day 14): both pancellular and dose-dependent; induction of fetal gamma-globin mRNA [4]: up to 9.4 fold; global H3K4 dimethylation [5]: enhanced global H3K4 dimethylation in a dose dependent manner; H3K4 dimethylation at the gamma-globin promoter [6]: enhanced H3K4 dimethylation; human beta-globin gene expression in bone marrow cells [7]: not significantly affected; induction of human gamma-globin gene expression in bone marrow cells vs control mice [8]: about 3 fold; activity of the mice (anecdotal observation) [9]: much more active; signs of toxic effects on hematological or other systems [9]: did not exhibit any signs of toxic effects; tolerability [9]: well tolerated
